The target of experiment [1] is T1, human GLP-1R (Homo sapiens, UniProt P43220, G168S).
T1 construct: expressed in transfected cells
Kind of experiment: CHO GLP-1R Clone H6 - Assay 1 (HTRF cAMP agonist assay). It counts as cell-based. The following applies: for pEC50: CHO Clone H6, high GLP-1R density, cAMP, geometric mean; for Emax / Assay 1 Emax (%): CHO Clone H6, relative to saturating full agonist GLP-1 7-36 (1 μM), arithmetic mean. As to the method:
GLP-1R-mediated agonist activity was determined with a cell-based functional assay utilizing an HTRF (Homogeneous Time-Resolved Fluorescence) cAMP detection kit (cAMP HI Range Assay Kit; CisBio cat #62AM6PEJ) that measures cAMP levels in the cell. The method is a competitive immunoassay between native cAMP produced by the cells and exogenous cAMP labeled with the dye d2, The tracer binding is visualized by a mAb anti-cAMP labeled with Cryptate. The specific signal (i.e. energy transfer) is inversely proportional to the concentration of cAMP in either standard or experimental sample.
The human GLP-1R coding sequence (NCBI Reference Sequence NP_002053.3, including naturally-occurring variant Gly168Ser) was subcloned into pcDNA3 (Invitrogen) and a cell line stably expressing the receptor was isolated (designated Clone H6).
A 1 mL sample of the cell suspension in growth media was counted on a Becton Dickinson ViCell to determine cell viability and cell count per mL. The remaining cell suspension was then adjusted with growth media to deliver 2000 viable cells per well using a Matrix Combi Multidrop reagent dispenser, and the cells were dispensed into a white 384 well tissue culture treated assay plate (Corning 3570). The assay plate was then incubated for 48 hours at 37° C. in a humidified environment in 5% carbon dioxide.
Varying concentrations of each compound to be tested (in DMSO) were diluted in assay buffer (HBSS with Calcium/Magnesium (Lonza/BioWhittaker cat #10-527F)/0.1% BSA (Sigma Aldrich cat #A7409-1L)/20 mM HEPES (Lonza/BioWhittaker cat #17-737E) containing 100 μM 3-isobutyl-1-methylxanthin (IBMX; Sigma cat #15879). The final DMSO concentration is 1%.
After 48 hours, the growth media was removed from the assay plate wells, and the cells were treated with 20 μL of the serially diluted compound in assay buffer for 30 minutes at 37° C. in a humidified environment in 5% carbon dioxide. Following the 30 minute incubation, 10 μL of labeled d2 cAMP and 10 μL of anti-cAMP antibody (both diluted 1:20 in cell lysis buffer; as described in the manufacturer's assay protocol) were added to each well of the assay plate. The plates were then incubated at room temperature and after 60 minutes, changes in the HTRF signal were read with an Envision 2104 multi-label plate reader using excitation of 330 nm and emissions of 615 and 665 nm. Raw data were converted to nM cAMP by interpolation from a cAMP standard curve (as described in the manufacturer's assay protocol) and the percent effect was determined relative to a saturating concentration of the full agonist GLP-17-36 (1 μM) included on each plate. EC50 determinations were made from agonist dose-response curves analyzed with a curve fitting program using a 4-parameter logistic dose response equation.
Background: Time-resolved FRET reads energy transfer from a long-lived donor to a nearby acceptor.

Experiment [2] addresses T2, human GLP-1R (Homo sapiens, UniProt P43220, L260F).
T2 construct: expressed in transfected cells; host or cells: CHO Flp-In T-REx, clonal line C6 (pcDNA5-FRT-TO)
Kind of experiment: CHO GLP-1R Clone C6 - Assay 2 (HTRF cAMP agonist assay). Type of experiment: cell-based. The conditions noted are these: for pEC50: CHO clone C6, low GLP-1R density, cAMP, geometric mean; for Emax: CHO clone C6, relative to saturating full agonist GLP-1 (1 μM), arithmetic mean. The method, then: GLP-1R-mediated agonist activity was determined with a cell-based functional assay utilizing an HTRF (Homogeneous Time-Resolved Fluorescence) cAMP detection kit (cAMP HI Range Assay Kit; Cis Bio cat #62AM6PEJ) that measures cAMP levels in the cell. The method is a competitive immunoassay between native cAMP produced by the cells and exogenous cAMP labeled with the dye d2. The tracer binding is visualized by a mAb anti-cAMP labeled with Cryptate. The specific signal (i.e. energy transfer) is inversely proportional to the concentration of cAMP in either a standard or an experimental sample.
The human GLP-1R coding sequence (NCBI Reference Sequence NP_002053.3, including naturally-occurring variant Leu260Phe) was subcloned into pcDNA5-FRT-TO and a clonal CHO cell line stably expressing a low receptor density was isolated using the Flp-In™ T-Rex™ System, as described by the manufacturer (ThermoFisher).
A 1 mL sample of the cell suspension in growth media was counted on a Becton Dickinson ViCell to determine cell viability and cell count per mL. The remaining cell suspension was then adjusted with growth media to deliver 1600 viable cells per well using a Matrix Combi Multidrop reagent dispenser, and the cells were dispensed into a white 384 well tissue culture treated assay plate (Corning 3570). The assay plate was then incubated for 48 h at 37° C. in a humidified environment (95% O2, 5% CO2)
Varying concentrations of each compound to be tested (in DMSO) were diluted in assay buffer [HBSS with Calcium/Magnesium (Lonza/BioWhittaker cat #10-527F)/0.1% BSA (Sigma Aldrich cat #A7409-1L)/20 mM HEPES (Lonza/BioWhittaker cat #17-737E)] containing 100 μM 3-isobutyl-1-methylxanthin (IBMX; Sigma cat #15879). The final DMSO concentration in the compound/assay buffer mixture is 1%.
After 48 h, the growth media was removed from the assay plate wells, and the cells were treated with 20 μL of the serially diluted compound in assay buffer for 30 min at 37° C. in a humidified environment (95% O2, 5% CO2). Following the 30 min incubation, 10 μL of labeled d2 cAMP and 10 μL of anti-cAMP antibody (both diluted 1:20 in cell lysis buffer; as described in the manufacturer's assay protocol) were added to each well of the assay plate. The plates were then incubated at room temperature and after 60 minutes, changes in the HTRF signal were read with an Envision 2104 multi-label plate reader using excitation of 330 nm and emissions of 615 and 665 nm. Raw data were converted to nM cAMP by interpolation from a cAMP standard curve (as described in the manufacturer's assay protocol) and the percent effect was determined relative to a saturating concentration of the full agonist GLP-1 (1 μM) included on each plate. EC50 determinations were made from agonist dose response curves analyzed with a curve fitting program using a 4-parameter logistic dose response equation.

Experimental findings from US12331041B2, “GLP-1 receptor agonists and uses thereof” (Pfizer Inc., priority 2018, dated 2025) are described below.

SMILES strings stand for the structures. pEC50: −log10 of the molar value. Structures can show the parent of a compound that is named as a salt.

As usually defined, the pEC50 is −log10 of the EC50, conventionally taken in molar units. Higher therefore signals a low EC50. Usually Emax stands for the greatest response seen or fitted, relative to the assay's reference.

T2 sequence (P43220 24-463 L260F): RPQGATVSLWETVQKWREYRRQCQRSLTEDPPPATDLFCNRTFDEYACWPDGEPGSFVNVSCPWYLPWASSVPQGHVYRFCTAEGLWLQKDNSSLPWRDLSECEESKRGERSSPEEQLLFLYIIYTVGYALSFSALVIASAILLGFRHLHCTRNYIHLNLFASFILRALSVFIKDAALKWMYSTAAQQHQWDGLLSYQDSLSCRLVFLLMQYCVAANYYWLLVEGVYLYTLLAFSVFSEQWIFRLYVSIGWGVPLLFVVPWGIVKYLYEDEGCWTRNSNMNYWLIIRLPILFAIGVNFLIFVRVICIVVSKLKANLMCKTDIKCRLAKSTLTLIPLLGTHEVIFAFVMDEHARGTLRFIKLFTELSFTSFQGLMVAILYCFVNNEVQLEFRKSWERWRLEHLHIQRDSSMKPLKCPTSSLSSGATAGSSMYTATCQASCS
T1 sequence (P43220 24-463 G168S): as the sequence (P43220 24-463 L260F) above, with G145S, F237L counted along it

At human GLP-1R [1], `COCCn1c(C2CC23CCN(c2nc(OCc4ccc(Cl)cc4F)ncc2F)CC3)nc2cnc(C(=O)O)cc21` (single isomer, unassigned) [Example 31, 2-(6-{2-[(4-chloro-2-fluorobenzyl)oxy]-5-fluoropyrimidin-4-yl}-6-azaspiro[2.5]oct-1-yl)-1-(2-methoxyethyl)-1H-imidazo[4,5-c]pyridine-6-carboxylic acid, trifluoroacetate salt, single enantiomer; from P7] had a pEC50 of 6.52 and an Emax of 65%.

`COCCn1c(C2CC23CCN(c2nc(OCc4ccc(Cl)cc4F)ncc2F)CC3)nc2cnc(C(=O)O)cc21` (single isomer, unassigned) [Example 32, 2-(6-{2-[(4-chloro-2-fluorobenzyl)oxy]-5-fluoropyrimidin-4-yl}-6-azaspiro[2.5]oct-1-yl)-1-(2-methoxyethyl)-1H-imidazo[4,5-c]pyridine-6-carboxylic acid, trifluoroacetate salt, single enantiomer; from C23] gave a pEC50 on human GLP-1R [1] of less than 4.70.

As for `O=C(O)c1ccc2nc(C3CC34CCN(c3nc(OCc5ccc(Cl)cc5F)ncc3F)CC4)n(CCn3cncn3)c2c1` (single isomer, unassigned) [Example 42, 2-(6-{2-[(4-chloro-2-fluorobenzyl)oxy]-5-fluoropyrimidin-4-yl}-6-azaspiro[2.5]oct-1-yl)-1-[2-(1H-1,2,4-triazol-1-yl)ethyl]-1H-benzimidazole-6-carboxylic acid, trifluoroacetate salt, from C23], on human GLP-1R [1], the pEC50 was 5.47 and the “Assay 1 Emax (%)” value was determined as 89%.

On human GLP-1R [1], `COCCn1c(C2CC23CCN(c2cccc(OCc4ccc(Cl)cc4F)n2)CC3)nc2ncc(C(=O)O)cc21` (single isomer, unassigned) [Example 48, 2-(6-{6-[(4-chloro-2-fluorobenzyl)oxy]pyridin-2-yl}-6-azaspiro[2.5]oct-1-yl)-1-(2-methoxyethyl)-1H-imidazo[4,5-b]pyridine-6-carboxylic acid, ENT-1] had a pEC50 of 5.59 and an Emax of 56%.

On human GLP-1R [1], `COCCn1c(C2CC23CCN(c2ccnc(OCc4ccc(Cl)cc4F)n2)CC3)nc2ccc(C(=O)O)cc21` (single isomer, unassigned; ent-1) [Example 46, Ammonium 2-(6-{2-[(4-chloro-2-fluorobenzyl)oxy]pyrimidin-4-yl}-6-azaspiro[2.5]oct-1-yl)-1-(2-methoxyethyl)-1H-benzimidazole-6-carboxylate, ENT-1] had a pEC50 of less than 5.01 and an Emax of 100%.

On to `N#Cc1ccc(COc2nc(N3CCC4(CC3)CC4c3nc4ccc(C(=O)O)cc4n3CC3CCO3)c(F)cc2F)c(F)c1` (single isomer, unassigned; ent-2) [Example 58], for which, on human GLP-1R [1], the pEC50 is 7.37 and the “Assay 1 Emax (%)” value is reported as 74%.

On human GLP-1R [2], `N#Cc1ccc(COc2ncccc2C2CCN(Cc3nc4ccc(C(=O)O)cc4n3C[C@@H]3CCO3)CC2)c(F)c1` [Example 5, 2-[(4-{2-[(4-cyano-2-fluorobenzyl)oxy]pyridin-3-yl}piperidin-1-yl)methyl]-1-[(2S)-oxetan-2-ylmethyl]-1H-benzimidazole-6-carboxylic acid] showed a pEC50 of 7.38 and an Emax of 95%.

At human GLP-1R [2], `Cn1nncc1Cn1c(CN2CCC(c3cccnc3OCc3ccc(Cl)cc3F)CC2)nc2ccc(C(=O)O)cc21` [Example 10, 2-[(4-{2-[(4-chloro-2-fluorobenzyl)oxy]pyridin-3-yl}piperidin-1-yl)methyl]-1-[(1-methyl-1H-1,2,3-triazol-5-yl)methyl]-1H-benzimidazole-6-carboxylic acid, trifluoroacetate salt] showed a pEC50 of 6.66 and an Emax of 100%.

Turning to `N#Cc1ccc(COc2ncccc2C2CCN(Cc3nc4ccc(C(=O)O)nc4n3C[C@@H]3CCO3)CC2)c(F)c1` [Example 18, ammonium 2-[(4-{2-[(4-cyano-2-fluorobenzyl)oxy]pyridin-3-yl}piperidin-1-yl)methyl]-3-[(2S)-oxetan-2-ylmethyl]-3H-imidazo[4,5-b]pyridine-5-carboxylate], on human GLP-1R [2], the pEC50 is 7.23 and the Emax was 100%.

At human GLP-1R [1], `Cn1c(CN2CCC(c3nccnc3OCc3ccc(Cl)cc3F)CC2)nc2cnc(C(=O)O)cc21` [Example 29, 2-[(4-{3-[(4-Chloro-2-fluorobenzyl)oxy]pyrazin-2-yl}piperidin-1-yl)methyl]-1-methyl-1H-imidazo[4,5-c]pyridine-6-carboxylic acid, trifluoroacetate salt] had a pEC50 of 5.74 and an Emax of 65%.

Turning to `C[C@H]1CN(c2nccnc2OCc2ccc(Cl)cc2F)CCN1Cc1nc2ccc(C(=O)O)nc2n1C` [Example 34, 2-{[(2S)-4-{3-[(4-Chloro-2-fluorobenzyl)oxy]pyrazin-2-yl}-2-methylpiperazin-1-yl]methyl}-3-methyl-3H-imidazo[4,5-b]pyridine-5-carboxylic acid, trifluoroacetate salt], at human GLP-1R [1], the pEC50 is 5.72 and the Emax was determined as 92%.

On human GLP-1R [1], `Cn1cnc(Cn2c(CN3CCC(c4ccnc(OCc5ccc(Cl)cc5F)n4)CC3)nc3ccc(C(=O)O)cc32)c1` [Example 66, 2-[(4-{2-[(4-chloro-2-fluorobenzyl)oxy]pyrimidin-4-yl}piperidin-1-yl)methyl]-1-[(1-methyl-1H-imidazol-4-yl)methyl]-1H-benzimidazole-6-carboxylic acid] gave a pEC50 of 6.77 and an Emax of 110%.

As for `C[C@H]1CN(c2nc(OCc3ccc(C#N)cc3)ncc2F)CCN1Cc1nc2ccc(C(=O)O)cc2n1CCC(F)(F)F` [Example 70, ammonium 2-{[(2S)-4-{2-[(4-cyanobenzyl)oxy]-5-fluoropyrimidin-4-yl}-2-methylpiperazin-1-yl]methyl}-1-(3,3,3-trifluoropropyl)-1H-benzimidazole-6-carboxylate], on human GLP-1R [1], the pEC50 was 6.15 and the Emax stood at 79%.
